Consider 1 molecule from US11730705B2, “Small molecule CMKLR1 antagonists in inflammatory disease” (The Board of Trustees of the Leland Stanford Junior …, priority 2019, dated 2023).

The conditions of data set [1]: 5 μg into the uterine horn on days 6, 9 and 12 following fertilization; cited from earlier work.
Data set [2] relates to Salmonella typhimurium (TA100). Nature of the data set: Ames test for genotoxicity. Particulars: concentrations up to at least 10 uM.
In another data set the target is T1, Cyp2D6 (Homo sapiens, UniProt P10635).
T1 construct: tissue Cyprotex/Evotec AG; host or cells: human liver microsomes
Particulars: PubChem BioAssay ID 1461; read-out: Cyp Inhibition IC50 (μM), Cyp2D6; cited from earlier work.

A further data set has as its system C57/BL6 mice. Nature of the data set: α-NETA acute single dose toxicity (LD50). The format is in vivo, mouse. An excerpt:
FIG. 3. Acute single dose toxicity (LD50) of α-NETA. […] The remaining mice were monitored for 14 days. Graph depicts lethality at each dose, n=3 per mice/dose.

Data set [3] deals with Pregnane X receptor (PXR) (Homo sapiens, UniProt O75469). In words: Cyp induction (PXR luciferase reporter). The format is cell-based. Particulars: concentrations up to 50 uM. As to the method:
Pregnane X receptor (PXR) activation was used as a marker of Cyp induction.
Pregnane X receptor (PXR) activation was used as a marker of Cyp induction. An engineered human hepatoma cell line with a PXR luciferase reporter was incubated with the indicated concentrations of α-NETA, Rifampicin (positive control), or DMSO (negative control), and luciferase activity assessed (Cyprotex/Evotec AG).
In general terms: A reporter such as luciferase makes a cellular process visible.

The structures appear in SMILES notation.

Chain of Pregnane X receptor (PXR) (O75469 whole entry): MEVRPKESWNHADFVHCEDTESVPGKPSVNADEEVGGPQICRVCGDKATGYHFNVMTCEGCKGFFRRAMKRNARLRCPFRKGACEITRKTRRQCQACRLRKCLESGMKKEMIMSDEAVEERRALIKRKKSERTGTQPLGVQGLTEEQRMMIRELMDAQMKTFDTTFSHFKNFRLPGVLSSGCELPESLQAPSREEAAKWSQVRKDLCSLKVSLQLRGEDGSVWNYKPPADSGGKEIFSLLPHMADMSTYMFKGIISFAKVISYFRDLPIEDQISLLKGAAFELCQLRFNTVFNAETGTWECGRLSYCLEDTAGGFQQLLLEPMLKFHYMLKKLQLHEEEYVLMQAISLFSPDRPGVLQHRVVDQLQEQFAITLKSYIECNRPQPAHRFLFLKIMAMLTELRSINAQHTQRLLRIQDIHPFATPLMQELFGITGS
T1 sequence (P10635 whole entry): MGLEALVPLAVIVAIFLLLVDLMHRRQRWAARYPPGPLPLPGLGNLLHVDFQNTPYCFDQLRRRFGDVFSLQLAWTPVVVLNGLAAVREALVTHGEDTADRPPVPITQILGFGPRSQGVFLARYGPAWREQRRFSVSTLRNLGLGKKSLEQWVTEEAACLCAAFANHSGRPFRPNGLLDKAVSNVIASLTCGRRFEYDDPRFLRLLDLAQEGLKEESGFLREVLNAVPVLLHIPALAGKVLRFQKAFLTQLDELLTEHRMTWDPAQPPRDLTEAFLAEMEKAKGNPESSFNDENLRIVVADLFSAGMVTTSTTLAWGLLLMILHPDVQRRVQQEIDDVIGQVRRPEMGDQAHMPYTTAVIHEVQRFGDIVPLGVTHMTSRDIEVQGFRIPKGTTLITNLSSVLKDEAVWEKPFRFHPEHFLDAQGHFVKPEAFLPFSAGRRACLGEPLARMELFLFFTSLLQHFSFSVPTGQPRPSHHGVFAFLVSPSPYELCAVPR

A word on the IC50: it is the concentration that gives 50% inhibition. For `C[N+](C)(C)CCC(=O)c1cccc2ccccc12.[I-]` [α-NETA, 2-(α-naphthoyl) ethyltrimethylammonium iodide], the embryo resorption entry in data set [1] is listed as “significant embryo resorption”. The “mutagenesis (reversion of an obligate histidine mutation)” value in data set [2] was “did not induce mutagenesis”. For the same molecule, the IC50 on Cyp2D6 was greater than 10 µM. Further, the “calculated LD50, acute single dose” value in the data set with C57/BL6 mice (p.o., mice, 10% captisol) is on record as 873 mg/kg. Further, the lethality entry in the data set with C57/BL6 mice (two highest doses (3000, 1000 mg/kg) by oral gavage) is on record as “Lethal effects were observed within hours”. In data set [3], the “PXR activation (marker of Cyp induction)” value is given as “did not induce substantial PXR activity”.
